According to EP4796171A2 (Zealand Pharma A/S, priority 2017, dated 2018):
Values joined by “and” are separate entries in the source; they are usually repeats but may differ in a detail not shown here. Equal values may be shown once.

Key:
[1] = Phase 1 trial, PK profile of glepaglutide after SC injections in healthy subjects; type: in vivo, human; conditions: individual subjects; for Half-life of ZP2469 in the interval from 72 to 168 hours post dose: final data; for Half-life ZP2469: preliminary data
Method: A Phase 1 clinical trial to characterize the pharmacokinetic (PK) profiles of glepaglutide (ZP1848) and its primary active metabolites following once-weekly and once daily subcutaneous (SC) injections and after a single intravenous (IV) infusion in healthy subjects was conducted. This included evaluating the pharmacodynamic effects on plasma citrulline levels following SC dosing in healthy subjects. The trial confirmed the feasibility of dosage regimes in which GLP-2 analogues are administered to patients in weekly dosage regimes and compare weekly dosage regimes with daily dosing.
The trial design was a single-center, open-label, partially randomized, 3-part, parallel group trial to characterize the PK profile of glepaglutide administered by SC injection once daily for 7 days (Part 1), SC injection once weekly for 6 weeks (Part 2), and as a single IV infusion (Part 3) in healthy subjects.
Glepaglutide was supplied as an aqueous solution at concentrations of 2 and 10 mg/mL. • Group A: 1 mg glepaglutide once daily, given as single SC injections on Days 1 to 7. • Group B: 5 mg glepaglutide once daily, given as single SC injections on Days 1 to 7. • Group C: 5 mg glepaglutide once weekly, given as single SC injections on Days 1, 8, 15, 22, 29, and 36. • Group D: 10 mg glepaglutide once weekly, given as single SC injections on Days 1, 8, 15, 22, 29, and 36. • Group E: 1 mg glepaglutide, given as an IV infusion at a rate of 4 mg/h for 15 minutes on Day 1.
Blood samples were collected for the analysis of plasma concentrations of glepaglutide and its primary active metabolites, ZP2469 (ZP18481-34) and ZP2711 (ZP18481-35); samples were assayed using validated analytical methods. The following PK parameter estimates were calculated using standard non-compartmental methods: terminal elimination half-life (t1/2), total body clearance of drug after IV administration (CL; IV dose, parent drug only), apparent total clearance (CL/F; SC doses, parent drug only), volume of distribution at steady state (Vss; IV dose, parent drug only), apparent volume of distribution at steady state (Vss/F; SC doses, parent drug only), volume of distribution (Vz; IV dose, parent drug only), apparent volume of distribution (Vz/F; SC doses, parent drug only), maximum observed plasma concentration (Cmax), area under the plasma concentration-time curve (AUC) over a dosing interval (AUCT), AUC from time zero to infinity (AUCinf), AUC from time zero to the time of the last measurable concentration (AUClast), and time of the maximum observed plasma concentration (tmax). Metabolite exposure (based on Cmax, AUCT, and AUCinf) were determined for each group as a ratio of the 2 primary active metabolites, ZP2469 (ZP18481-34) and ZP2711 (ZP18481-35), relative to the glepaglutide parent drug.
The PK parameters estimates for glepaglutide, ZP2469 (ZP18481-34), and ZP2711 (ZP18481-35) were listed and summarized using standard descriptive statistics. The primary PK parameters are t1/2 for glepaglutide, ZP2469 (ZP18481-34), and ZP2711 (ZP18481-35); and CL (IV dose), CL/F (SC doses), Vss (IV dose), Vss/F (SC dose), Vz (IV dose), and Vz/F (SC doses) for glepaglutide. The half-life is calculated as LN(2)/ke where ÷ke is estimate from the slope of the terminal part of the LN(concentration) versus time curve, with repeats regressions of LN(concentration) values using the last three points with non-zero concentrations, then the last four points, last five points, etc. Points with a concentration value of zero are not included. Points prior to Cmax are not used. […] 2) ke must be calculated from at least three data points. 3) The estimated slope must be negative, so that its negative ke is positive. The results of the calculations carried out with preliminary data are shown in Table 4, while the results of the calculations with the complete final data set are shonw in Table 5. […]

[2] = Phase 2 clinical trial, PK profile of ZP1848 and metabolites in SBS patients; type: in vivo, human; conditions: for Conc.: plasma
Method: A phase 2 clinical trial was conducted to i.a. determine the PK profile of ZP1848 and metabolites in human SBS patients.
The study was designed as a randomized, cross-over and double-blinded with three different doses of ZP1848 (10 mg, 1 mg, 0.1 mg) in 16 SBS patients.
The 18 SBS patients (16 patients completed the study) were randomized evenly and in a double-blinded fashion to each of the six cross-over dose level combinations: 10 mg/1 mg, 10 mg/0.1 mg, 1 mg/10 mg, 1 mg/0.1 mg, 0.1 mg/10 mg, 0.1 mg/1 mg of ZP1848. The patients were injected once daily (QD) subcutaneously with the above doses of ZP1848.
Blood samples for PK analysis were collected on several study visits throughout the study period: the study comprised a 1st baseline balance study (4 days), a 1st treatment period (21 days) including a 1st treatment balance study (last 4 days of 1st treatment period), followed by a wash-out period (at least 4 weeks); and a 2nd baseline balance study (4 days), a 2nd treatment period (21 days) including a 2nd treatment balance study (last 4 days of 2nd treatment period) and a follow-up period (at least 4 weeks).
PK sampling was performed at visit 11 (1st treatment, balance study) and visit 17 (second day of 2nd baseline study - after a wash out period), and again at visit 25 (2nd treatment balance study) and at visit 29 (last day of follow-up period).
At day visit 11 and visit 25 a full PK profile in steady state was investigated. PK samples were taken prior to injection of ZP1848, and at the following time points (+/- 10 minutes) after trial product administration: 1h, 2h, 4h, 6h, 8h, 10h, 12h and 24h. Each PK sample contained 2 mL of blood, resulting in a total of […] blood drawn for PK purposes. The plasma sample was immediately stored at -80°C after sampling.
Plasma samples were analyzed after immunoaffinity extraction followed by liquid chromatography mass spectrometry (LC-MS/MS). For each patient plasma concentrations were used for calculation of the pharmacokinetic parameters using the non-compartmental approach in Excel. Plasma terminal elimination half-life (T½) was determined as In(2)/ke where ke is the magnitude of the slope of the log linear regression of the log concentration versus time profile during the terminal phase.

H-HGEGTFSSELATILDALAARDFIAWLIATKITDK-OH [ZP2469]
Half-life of ZP2469 in the interval from 72 to 168 hours post dose ([1]; Group A, 1 mg once daily, after 7 doses): 75 h and 87 h and 80 h and 54 h and 57 h | Half-life of ZP2469 in the interval from 72 to 168 hours post dose ([1]; Group B, 5 mg once daily, after 7 doses): 168 hr and 77 hr and 101 hr (2×) and 53 hr and 34 hr and 46 hr and 100 hr and 40 hr and 84 hr and 50 hr and 42 hr | Half-life of ZP2469 in the interval from 72 to 168 hours post dose ([1]; Group C, 5 mg once weekly, after 1 dose): 329 hr and 41 hr and 38 hr and 48 hr (2×) and 59 hr and 61 hr and 217 hr and 45 hr and 39 hr and 91 hr and 75 hr | Half-life of ZP2469 in the interval from 72 to 168 hours post dose ([1]; Group C, 5 mg once weekly, after 6 doses): 26 h and 35 h and 59 h and 75 h and 57 h and 43 h and 52 h and 107 h and 33 h and 68 h and 47 h and 65 h and 452 h | Half-life of ZP2469 in the interval from 72 to 168 hours post dose ([1]; Group D, 10 mg once weekly, after 1 dose): 66 hr and 54 hr and 120 hr and 36 hr and 46 hr and 35 hr and 60 hr and 26 hr and 158 hr and 53 hr and 43 hr (2×) and 33 hr and 45 hr and 38 hr | Half-life of ZP2469 in the interval from 72 to 168 hours post dose ([1]; Group D, 10 mg once weekly, after 6 doses): 60 hr (2×) and 55 hr and 74 hr and 58 hr and 70 hr and 59 hr and 30 hr and 102 hr and 53 hr and 42 hr and 48 hr and 56 hr and 17 hr | Half-life ZP2469 ([1]; Group A, 1 mg glepaglutide SC once daily, after 7 doses): 20 h and 95 h and 76 h and 36 h and 33 h and 87 h | Half-life ZP2469 ([1]; Group B, 5 mg glepaglutide SC once daily, after 7 doses): 75 h and 108 h and 209 h and 59 h and 139 h and 94 h | Half-life ZP2469 ([1]; Group C, 5 mg glepaglutide SC once weekly, after 1 dose): 38 hr (2×) and 100 hr and 17 hr and 48 hr and 20 hr | Half-life ZP2469 ([1]; Group C, 5 mg glepaglutide SC once weekly, after 6 doses): 11 h and 17 h and 16 h and 32 h and 40 h and 22 h | Half-life ZP2469 ([1]; Group D, 10 mg glepaglutide SC once weekly, after 1 dose): 52 h and 38 h and 43 h and 34 h | Half-life ZP2469 ([1]; Group D, 10 mg glepaglutide SC once weekly, after 6 doses): 60 h and 55 h and 74 h and 34 h and 58 h | plasma level ([2]; in words, relative to ZP1848 after administration of ZP1848): multiple times higher than that of ZP1848 | Conc. ([2]; Day 0 (visit 11 or 25, treatment balance study), ZP1848 SC once daily, individual subjects): 2.22 nM and 0.556 nM and 3.64 nM and 4.75 nM and 4.66 nM and 4.49 nM and 1.04 nM and 14.7 nM and 6.77 nM and 4.34 nM and 4.94 nM | Conc. ([2]; Day 28-56 (visit 17 or 29, after wash-out/follow-up), individual subjects): 0.394 nM and 0.0528 nM and 0.0564 nM and 0.288 nM and 0.236 nM and 0.195 nM and 0.133 nM and 0.209 nM and 0.46 nM and 0.116 nM and 0.112 nM | Half-life ([2]; terminal, from Day 0 and wash-out/follow-up concentrations, individual subjects): 5.2 days and 7.9 days and 8.7 days (2×) and 11 days (2×) and 7.2 days (2×) and 12 days and 9.5 days and 9.6 days
